# From patent US11135310B2, “Gold porphyrin-PEG conjugates and methods of use” (The University of Hong Kong, priority 2015, dated 2021)
# Where two headings read alike, the source gives them in different places.
# How the values were obtained:
# HeLa = assay: In vitro cytotoxicity, MTT assay; format: cell-based, human
# Source text: Therefore, it was anticipated that a not too high loading of DOX into nanostructures of 1 could be used for anti-cancer purposes in order to maintain low toxicity toward non-tumorigenic cells. Together with the higher encapsulation efficiency of DOX, NC1 was selected for investigations of the in vitro cytotoxicity. […] The in vitro cytotoxicity of NC1 was also compared to that of the mixture of nanostructures of 1 and DOX. […] The observed cytotoxicity was further evaluated by the combination index (CI), which can describe the effect of drug combination. […] It is shown that dose and effect are interchangeable via defined parameters. This general equation for the single drug effect has been extended to the multiple drug effect equation for n drugs. These equations provide the theoretical basis for the combination index (CI)-isobologram equation that allows quantitative determination of drug interactions, where CI<1, =1, and >1 indicate synergism, additive effect, and antagonism, respectively. [Chou, et al. Pharmacol. Rev. 2006, 58, 621] […] The synergistic effect can originate from different molecular targets and/or mechanism of action of DOX from that of gold(III) porphyrin complexes. […] These different modes of action would allow supra-additive effect on killing HeLa cells by the co-delivery.
# NCI-H460 = assay: In vitro cytotoxicity, MTT assay; format: cell-based, human; details: for IC50: MTT assay, 72 h incubation
# HCT116 = assay: In vitro cytotoxicity, MTT assay; format: cell-based, human; details: for IC50: HCT116, MTT assay, 72 h incubation
# A2780 = assay: In vitro cytotoxicity, MTT assay; format: cell-based, human; details: for IC50: MTT assay, 72 h incubation
# A2780cis = assay: In vitro cytotoxicity, MTT assay; format: cell-based, human; details: for IC50: MTT assay, 72 h incubation; for Resistance found in A2780cis: Determined by IC50 of A2780cis cells/IC50 of A2780 cells
# NCM460 = assay: In vitro cytotoxicity, MTT assay; format: cell-based, human; details: 72 h incubation
# CCD-19Lu = assay: In vitro cytotoxicity, MTT assay; format: cell-based; details: 72 h incubation
# non-tumorigenic cells = assay: In vitro cytotoxicity, MTT assay, non-tumorigenic cells; format: cell-based; details: 72 h
# HCT116 cells [1] = assay: Hydrolysis of the gold(III) complexes in live cells, UPLC-QTOF-MS; format: in vitro ADME, human; details: 2 μM, 24 h, UPLC-QTOF-MS of lysates
# Experimental: Hydrolysis of the gold(III) complexes in live cells has been studied by ultra-performance liquid chromatography coupled quadrupole-time-of-flight mass spectrometry (UPLC-QTOF-MS). Colon cancer cells, HCT116, were treated with 1 and A1 (2 μM) for 24 h, harvested and lysed by acetonitrile-water solution mixture (3:1, v/v) prior to UPLC-QTOF-MS analysis. […] In view of the fact that the peak with retention time of 6.44 min in the total-ion chromatogram of cell lysates of HCT116 treated with 1 was absence in the total-ion chromatogram of 1 in acetonitrile solution, this peak should be owing to the metabolite of 1 formed in HCT116 cells.
# A2780adr cells [2] = assay: Cellular uptake by ICP-MS; format: cell-based, human; details: 2 μM, 37° C.
# Source text: Based on the results of previous study on cellular uptake of nanostructures [Davis, M. E. et al. Nat. Rev. Drug Discov. 2008, 7, 771] and the strong dependence of the uptake mechanism of 1 on temperature, K^+ concentration and hypertonic condition (FIG. 3d), nanostructures of 1 likely entered live cells by clathrin-mediated endocytosis.
# To rationalize the lower toxicity of NC1 toward MIHA cells, cellular uptake of NC1 by MIHA and cancer cells has been investigated by ICP-MS (FIGS. 3b and 4). The gold contents in A2780 and A2780adr cells were 2.6- and 2.0-fold higher than that in MIHA cells, respectively, after incubation with NC1 for 2 h. […] On the other hand, co-incubation of MIHA cells with 1 and DOX should not lead to significant changes in cellular uptake rate of DOX. […] For NC1, it was less toxic toward MIHA cells as reflected by the apparent “strong antagonism” (Table 3), which should be owing to the decrease of DOX cellular uptake by the encapsulation from the nanostructures of 1, rather than real antagonism from DOX and 1.
# HCT116 xenografts = format: in vivo; details: 4 mg/kg intravenous, 24 days, n=8, p<0.01
# Source text: FIGS. 8B and 8C show changes in tumor volume and body weight, respectively, in mice (n=8) after treatment with different doses of 1 or A1. The control group received an equal volume of PBS only. ** denotes p<0.01 vs. control.
# Significant pulmonary hemorrhage in the alveoli and a thickening of alveolar walls were found. Also, apoptotic hepatocytes and swollen renal epithelial cells were found, leading to subsequent shrinkage of kidney tubules. […] The lower systemic toxicity of 1 can be explained by the lower accumulation of 1 in the organs of mice treated at its effective dosage, as compared to that of A1 and Au1a (FIG. 10).
# [3] = Systemic toxicity in mice bearing HCT116 xenografts (body weight, histopathology, blood biochemistry); format: in vivo
# Source text: FIGS. 9A-9H show blood biochemistry analysis of ALT, AST, GLB, BUN, CREA, UA, LDH and CK, respectively, in the mice (n=8) at 24 days post-treatment.
# A2780adr [4] = details: for IC50: MTT assay, 72 h incubation; for Resistance found in A2780adr: Determined by IC50 of A2780adr cells/IC50 of A2780 cells
# MIHA = assay: In vitro cytotoxicity, MTT assay
# HCT116 cells [5] = assay: Induction of apoptosis, CellEvent Caspase-3/7 Green (microscopy and flow cytometry); format: cell-based, human; details: NC1 ([1]=3.5 μM and [DOX]=0.5 μM) or DOX alone
# A2780adr cells [6] = assay: Cellular uptake of DOX, cell lysates by UPLC-QTOF-MS; format: cell-based, human; details: for Uptake of DOX by A2780adr cells: [DOX]=0.5 μM
# A2780adr [7] = assay: cells; details: Homo sapiens, A2780 ADR, 72 h
# [8] = MTT assay, 72 h incubation, read-out: IC50
# [9] = IC50 of MIHA cells/IC50 of cancer cells
# [10] = IC50 of NCM460 cells/IC50 of cancer cells
# [11] = HCT-116, IC50 of MIHA cells/IC50 of cancer cells
# [12] = HCT-116, IC50 of NCM460 cells/IC50 of cancer cells
# [13] = A2780cis, IC50 of MIHA cells/IC50 of cancer cells
# [14] = A2780cis, IC50 of NCM460 cells/IC50 of cancer cells
# [15] = A2780adr, IC50 of MIHA cells/IC50 of cancer cells
# [16] = A2780adr, IC50 of NCM460 cells/IC50 of cancer cells
# [17] = MIHA, MTT assay, 72 h incubation
smiles,measurement,setting,value
COC(=O)c1ccc(-c2c3nc(c(-c4ccccc4)c4ccc([n-]4)c(-c4ccccc4)c4nc(c(-c5ccccc5)c5ccc2[n-]5)C=C4)C=C3)cc1.[Au+3].[Cl-] [A1],Toxicity toward cancer cells compared to that toward MIHA cells,HeLa; IC50 of non-tumorigenic MIHA cells/IC50 of cancer cells,0.9
same,Toxicity toward cancer cells compared to that toward NCM460 cells,HeLa; IC50 of non-tumorigenic NCM460 cells/IC50 of cancer cells,0.2
same,IC50,HeLa; [8],800 ± 100 nM
same,Toxicity toward cancer cells compared to that toward MIHA cells,NCI-H460; [9],7.0
same,Toxicity toward cancer cells compared to that toward NCM460 cells,NCI-H460; [10],1.3
same,IC50,NCI-H460,100 ± 10 nM
same,IC50,HCT116,90 ± 10 nM
same,Toxicity toward cancer cells compared to that toward MIHA cells,HCT116; [11],7.7
same,Toxicity toward cancer cells compared to that toward NCM460 cells,HCT116; [12],1.4
same,Toxicity toward cancer cells compared to that toward MIHA cells,A2780; [9],3.5
same,Toxicity toward cancer cells compared to that toward NCM460 cells,A2780; [10],0.7
same,IC50,A2780,200 ± 20 nM
same,Toxicity toward cancer cells compared to that toward MIHA cells,A2780cis; [13],3.5
same,Toxicity toward cancer cells compared to that toward NCM460 cells,A2780cis; [14],0.7
same,IC50,A2780cis; A2780cis,200 ± 30 nM
same,Resistance found in A2780cis,A2780cis,1.0
same,IC50,NCM460,130 ± 10 nM
same,IC50,CCD-19Lu,730 ± 40 nM
same,IC50 for non-tumorigenic cells,non-tumorigenic cells,submicromolar range
same,Species formed by hydrolysis of ester bond in cells,HCT116 cells [1],[Au(TPP—COOH)]^+
same,Incubation time after which amount in A2780adr cells decreases,A2780adr cells [2],0.75 h
same,Reduction of tumor volume,HCT116 xenografts,56%
same,Reduction of tumor weight,HCT116 xenografts,49%
same,Blood biochemistry (organ damage indicators),"[3]; 4 mg/kg, for 1: ALT, GLB, BUN and CK, p<0.05","significant damage in the lung, liver and kidney"
same,"Histopathological analysis of lung, liver, kidney, heart and spleen",[3]; after treatment (A1: 4 mg/kg),"damage in normal lung, liver and kidney tissues"
same,Toxicity toward cancer cells compared to that toward MIHA cells,A2780adr [4]; [15],1.1
same,Toxicity toward cancer cells compared to that toward NCM460 cells,A2780adr [4]; [16],0.2
same,IC50,A2780adr [4]; A2780adr,650 ± 60 nM
same,Resistance found in A2780adr,A2780adr [4],0.31
same,IC50,MIHA; [17],700 ± 100 nM
Oc1ccc(-c2c3nc(c(-c4ccccc4)c4ccc([n-]4)c(-c4ccccc4)c4nc(c(-c5ccccc5)c5ccc2[n-]5)C=C4)C=C3)cc1.[Au+3].[Cl-] [A4],IC50,HeLa; [8],380 ± 70 nM
same,IC50,NCI-H460,150 ± 3 nM
same,IC50 for non-tumorigenic cells,non-tumorigenic cells,submicromolar range
same,IC50,A2780adr [4]; A2780adr,530 ± 140 nM
same,IC50,MIHA; [17],570 ± 40 nM
O=C(O)CCCCCCCCC(=O)Oc1ccc(-c2c3nc(c(-c4ccccc4)c4ccc([n-]4)c(-c4ccccc4)c4nc(c(-c5ccccc5)c5ccc2[n-]5)C=C4)C=C3)cc1.[Au+3].[Cl-] [A10],IC50,HeLa; [8],410 ± 50 nM
same,IC50,NCI-H460,180 ± 4 nM
same,IC50 for non-tumorigenic cells,non-tumorigenic cells,submicromolar range
same,IC50,A2780adr [4]; A2780adr,520 ± 60 nM
same,IC50,MIHA; [17],610 ± 50 nM
"N.N.[Cl][Pt][Cl] [Cisplatin, cisplatin, reference compound]",IC50,HeLa; [8],19800 ± 1400 nM
same,IC50,NCI-H460,65400 ± 5000 nM
same,IC50,HCT116,15700 ± 2200 nM
same,IC50,A2780,2600 ± 300 nM
same,IC50,A2780cis; A2780cis,8400 ± 50 nM
same,Resistance found in A2780cis,A2780cis,0.31
same,IC50,NCM460,12300 ± 900 nM
same,IC50,CCD-19Lu,49100 ± 5400 nM
same,IC50,A2780adr [4]; A2780adr,12700 ± 1900 nM
same,Resistance found in A2780adr,A2780adr [4],0.20
same,IC50,MIHA; [17],17600 ± 1300 nM
"COc1cccc2c1C(=O)c1c(O)c3c(c(O)c1C2=O)C[C@@](O)(C(=O)CO)C[C@@H]3O[C@H]1C[C@H](N)[C@H](O)[C@H](C)O1 [DOX, doxorubicin]",IC50,"HeLa; Homo sapiens, 72 h, read-out: DOX at IC50",570 nM
same,IC50,"HeLa; Homo sapiens, 72 h, read-out: Total dose at IC50",570 nM
same,IC50,"HeLa; Homo sapiens, MTT assay, 72 h incubation, read-out: IC50",570 ± 60 nM
same,Toxicity (of DOX) toward cancer cells compared to that toward MIHA cells,"HeLa; IC50 of MIHA cells/IC50 of cancer cells, cytotoxicity of 1 in NC1 not considered",0.2
same,Toxicity (of DOX) toward cancer cells compared to that toward NCM460 cells,"HeLa; IC50 of NCM460 cells/IC50 of cancer cells, cytotoxicity of 1 in NC1 not considered",1.8
same,IC50,NCI-H460; Homo sapiens,36 ± 10 nM
same,Toxicity (of DOX) toward cancer cells compared to that toward MIHA cells,NCI-H460; [9],2.8
same,Toxicity (of DOX) toward cancer cells compared to that toward NCM460 cells,NCI-H460; [10],27.8
same,Toxicity (of DOX) toward cancer cells compared to that toward MIHA cells,HCT116; [11],0.7
same,Toxicity (of DOX) toward cancer cells compared to that toward NCM460 cells,HCT116; [12],7.1
same,IC50,"HCT116; Homo sapiens, HCT-116",140 ± 20 nM
same,IC50,A2780; Homo sapiens,45 ± 7 nM
same,Toxicity (of DOX) toward cancer cells compared to that toward MIHA cells,A2780; [9],2.2
same,Toxicity (of DOX) toward cancer cells compared to that toward NCM460 cells,A2780; [10],22.2
same,Toxicity (of DOX) toward cancer cells compared to that toward MIHA cells,A2780cis; [13],1.9
same,Toxicity (of DOX) toward cancer cells compared to that toward NCM460 cells,A2780cis; [14],18.5
same,IC50,"A2780cis; Homo sapiens, A2780cis",54 ± 5 nM
same,Incubation time for induction of apoptosis of HCT116 cells,HCT116 cells [5],30 h
same,DOX uptake smaller than after incubation of NC1,A2780adr cells [6]; 14 h,1.8 fold
same,DOX uptake smaller than after incubation of NC1,A2780adr cells [6]; 24 h,3.0 fold
same,Uptake of DOX by A2780adr cells,A2780adr cells [6]; incubation 14 h,33.9 μg per g of proteins
same,Uptake of DOX by A2780adr cells,A2780adr cells [6]; incubation 24 h,27.8 μg per g of proteins
same,Toxicity (of DOX) toward cancer cells compared to that toward MIHA cells,A2780adr [4]; [15],0.1
same,Toxicity (of DOX) toward cancer cells compared to that toward NCM460 cells,A2780adr [4]; [16],1.5
same,Lower cytotoxicity toward A2780adr cells than non-resistant A2780 cells,A2780adr [4]; from IC50 of Table 1,15 fold
same,IC50,A2780adr [7],680 ± 50 nM
same,IC50,A2780adr [7]; read-out: DOX at IC50,700 nM
same,IC50,A2780adr [7]; read-out: Total dose at IC50,700 nM
same,IC50,MIHA; 72 h,100 ± 10 nM
same,IC50,"MIHA; 72 h, read-out: DOX at IC50",100 nM
same,IC50,"MIHA; 72 h, read-out: Total dose at IC50",100 nM
